Experimental data reported in patent US20010003780A1, “Retinoid antagonists and uses thereof” (priority 1997, published 2001).

Tested on: trauma-induced caecal adhesion in rats
Test: trauma-induced caecal adhesion model in rats
Assay type: in vivo, rat
Procedure: Models of peritoneal adhesions induced by surgical trauma have been used to predict the clinical activity of a number of marketed anti-adhesion barrier devices. One such model is the trauma-induced caecal adhesion model in rats. A representative retinoid antagonist compound of the present invention, 4-{{(E)-(5,6-dihydro-5,5-dimethyl-8-phenyl)-2-naphthalenyl]vinyl]benzoic acid of the formula [drawing 49]
Adult female Wistar rats were used in our studies. The trauma induction was carried out using aseptic conditions in animals anesthetized with a mixture of Ketamine (100 mg/kg) and Rompun (10 mg/kg) given IP. A 2 cm midline abdominal incision was made and the caecum was exteriorized. Both sides of the caecum were abraded with a dry gauze until there was evidence of punctate bleeding. After replacing the organ in the abdominal cavity, the incision was closed. Trauma to the caecum produces fibrous scar tissue or adhesions to adjacent organs, peritoneal wall, or the omentum. Animals were treated with test compound orally or by intravenous injection or intra-abdominally by direct instillation into the peritoneal cavity. Oral treatments were administered once daily for up to 7 days. Intra-abdominal treatments were applied once post-trauma and just prior to wound closure.
On the seventh postoperative day, the animals were sacrificed and the peritoneal cavity was exposed and examined for adhesions. Three criteria that were used to evaluate the adhesions are: severity of the adhesions, extent or area of the ceacum involved with adhesions and the number of adhesions formed in each animal. Statistical analysis of the data was performed using students' T test. The following scoring system was used:
The test compound described above administered by the intra-abdominal route was compared to some other representative retinoid antagonists of the present invention. A single dose of compound in 3 ml volume was instilled over the traumatized caecum and abdominal cavity prior to closing the incision. Seven days later the animals were sacrificed and the abdominal cavity was examined for adhesions to the caecum.

[1] = administered orally for 7 days, 10 and 15 mg/kg, compared to the vehicle control (FIG. 1)

SMILES | effect on trauma induced adhesions (number, severity and extent of caecal adhesions) (orally administered, at twice the dose of the test compound (Table 1)) | number of adhesions per animal [1] | severity of adhesions per animal [1] | severity of caecal adhesions (single intra-abdominal application at 5 mg in 3 ml, examined seven days later (Table 2)) | number of adhesions formed (single intra-abdominal application at 5 mg in 3 ml, examined seven days later, compared to the vehicle control (Table 2))
CC1=C(/C=C/C(C)=C/C=C/C(C)=C/C(=O)O)C(C)(C)CCC1 [All-trans retinoic acid, all-trans retinoic acid, reference compound] | no significant effect | – | – | – | –
CC1(C)CC=C(c2ccccc2)c2cc(/C=C/c3ccc(C(=O)O)cc3)ccc21 [compound A, 4-{{(E)-(5,6-dihydro-5,5-dimethyl-8-phenyl)-2-naphthalenyl]vinyl]benzoic acid] | – | significantly reduced | significantly reduced | effectively reduced | significantly reduced
